For 23 compounds, IC50 results are on record in patent US11820766B2, “Monoacylglycerol lipase modulators” (Janssen Pharmaceutica NV, priority 2018, dated 2023).

Structures can show the parent of a compound that is named as a salt.

In one assay the target is T1, human MGL from HeLa cells (Homo sapiens, UniProt Q99685).
T1 construct: combining endogenously expressed MGL from HeLa cells with test compounds; endogenous in cells; host or cells: HeLa cells / cell homogenates
T1 sequence (Q99685 1-303): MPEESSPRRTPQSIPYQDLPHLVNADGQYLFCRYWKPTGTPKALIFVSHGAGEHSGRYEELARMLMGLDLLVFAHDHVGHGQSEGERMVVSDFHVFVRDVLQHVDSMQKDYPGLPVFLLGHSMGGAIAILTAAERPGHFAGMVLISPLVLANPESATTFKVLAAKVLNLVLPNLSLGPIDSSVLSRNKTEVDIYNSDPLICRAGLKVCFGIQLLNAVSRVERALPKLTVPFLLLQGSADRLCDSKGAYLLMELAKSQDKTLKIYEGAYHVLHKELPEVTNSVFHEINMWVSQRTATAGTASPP
As to the kind of experiment: In vitro MGL activity assay: [glycerol-1,3-3H]-oleyl glycerol cleavage by MGL from HeLa cells. In kind it is biochemical. Conditions: 300 nM [Glycerol-1,3-3H]-oleyl glycerol, one hour. The text has this: MGL is the predominant hydrolase in HeLa cells/cell homogenates.
On to `Cc1ccc2cc(C(=O)N3CCc4c(nn(C)c4-c4cc(F)c(F)c(F)c4)[C@@H]3C)ccc2n1` [Example 548, [(7S)-2,7-Dimethyl-3-(3,4,5-trifluorophenyl)-5,7-dihydro-4H-pyrazolo[3,4-c]pyridin-6-yl]-(2-methyl-6-quinolyl)methanone], for which the midpoint of inhibition, the IC50, lay at 16.2 nM.
In turn, `Cc1cc2c(C(=O)N3CCc4c(nn(C)c4-c4cc(F)c(F)c(F)c4)[C@@H]3C)ncnc2n1C` [Example 469, (6,7-Dimethylpyrrolo[2,3-d]pyrimidin-4-yl)-[(7S)-2,7-dimethyl-3-(3,4,5-trifluorophenyl)-5,7-dihydro-4H-pyrazolo[3,4-c]pyridin-6-yl]methanone] gave an IC50 of 36.4 nM.
Regarding `COc1ccc2c(C(=O)N3CCc4c(nn(C)c4-c4cc(F)c(F)c(F)c4)[C@@H]3C)cnn2c1` [Example 388, [(7S)-2,7-Dimethyl-3-(3,4,5-trifluorophenyl)-5,7-dihydro-4H-pyrazolo[3,4-c]pyridin-6-yl]-(6-methoxypyrazolo[1,5-a]pyridin-3-yl)methanone.TFA salt], it took 60.7 nM to reach half-maximal inhibition (IC50).
Consider `Cc1c(C(=O)N2CCc3c(nn(C)c3-c3cc(F)c(F)c(F)c3)[C@@H]2C)cnn1C` [Example 345, (1,5-Dimethylpyrazol-4-yl)-[(7S)-2,7-dimethyl-3-(3,4,5-trifluorophenyl)-5,7-dihydro-4H-pyrazolo[3,4-c]pyridin-6-yl]methanone], for which the IC50 is 52.8 nM.
`C[C@H]1c2nn(C)c(-c3cc(F)c(F)c(F)c3)c2CCN1C(=O)c1c(C(F)F)nc2n1CCCC2` [Example 561, [2-(Difluoromethyl)-5,6,7,8-tetrahydroimidazo[1,2-a]pyridin-3-yl]-[(7S)-2,7-dimethyl-3-(3,4,5-trifluorophenyl)-5,7-dihydro-4H-pyrazolo[3,4-c]pyridin-6-yl]methanone] registered an IC50 of 326 nM.
Regarding `C[C@H]1c2nn(C)c(-c3cc(F)c(F)c(F)c3)c2CCN1C(=O)c1nnc2ccccn12` [Example 437, [(7S)-2,7-Dimethyl-3-(3,4,5-trifluorophenyl)-5,7-dihydro-4H-pyrazolo[3,4-c]pyridin-6-yl]-([1,2,4]triazolo[4,3-a]pyridin-3-yl)methanone], the IC50 was determined as 187 nM.

Staying with this assay, now noted: 300 nM [Glycerol-1,3-3H]-oleyl glycerol, one hour incubation.
Take `CC1c2nn(C)c(-c3cccc(Cl)c3)c2CCN1C(=O)c1ccc2nccnc2c1` (racemic) [Example 132, (3-(3-Chlorophenyl)-2,7-dimethyl-2,4,5,7-tetrahydro-6H-pyrazolo[3,4-c]pyridin-6-yl)(quinoxalin-6-yl)methanone]: half-maximal inhibition (IC50) was put at 18.4 nM.
In turn, `COc1cc(C(=O)N2CCc3c(nn(C)c3-c3ccccc3)C2)cc(C(F)(F)F)c1` [Example 6, (3-Methoxy-5-(trifluoromethyl)phenyl)(2-methyl-3-phenyl-2,4,5,7-tetrahydro-6H-pyrazolo[3,4-c]pyridin-6-yl)methanone] displayed an IC50 of 365 nM.
Regarding `COc1c(C)cccc1C(=O)N1CCc2c(nn(C)c2-c2ccccc2)C1` [Example 7, (2-Methoxy-3-methylphenyl)(2-methyl-3-phenyl-2,4,5,7-tetrahydro-6H-pyrazolo[3,4-c]pyridin-6-yl)methanone], the IC50 amounted to 113 nM.
For `C[C@H]1c2nn(C)c(-c3cccc(Cl)c3)c2CCN1C(=O)c1cnc2ccoc2c1` (single isomer, unassigned) [Example 128], the IC50 worked out at 26.3 nM.
In turn, `Cn1nc2c(c1-c1ccccc1)CCN(C(=O)c1ccc3cn[nH]c3c1)C2` [Example 68, (1H-Indazol-6-yl)(2-methyl-3-phenyl-2,4,5,7-tetrahydro-6H-pyrazolo[3,4-c]pyridin-6-yl)methanone] had an IC50 of 2190 nM.
`Cn1nc2c(c1-c1cc3ccccc3n1C)CCN(C(=O)c1ccc3ncccc3c1)C2` [Example 105, (2-Methyl-3-(1-methyl-1H-indol-2-yl)-2,4,5,7-tetrahydro-6H-pyrazolo[3,4-c]pyridin-6-yl)(quinolin-6-yl)methanone] gave an IC50 of 406 nM.
As to `C[C@@H]1c2nn(C)c(-c3cc(F)cc(F)c3)c2CCN1C(=O)c1ccc2nccnc2c1` (single isomer, unassigned) [Example 169], the IC50 came to 3740 nM.
Turning to `C[C@H]1c2nn(C)c(-c3cc(F)cc(F)c3)c2CCN1C(=O)c1cc(C(F)(F)F)c2ncccc2c1` [Example 164, (S)-(3-(3,5-Difluorophenyl)-2,7-dimethyl-2,4,5,7-tetrahydro-6H-pyrazolo[3,4-c]pyridin-6-yl)(8-(trifluoromethyl)quinolin-6-yl)methanone], the IC50 was 38.4 nM.
`CC1c2nn(C)c(-c3cccc4c3ccn4C)c2CCN1C(=O)c1ccc2ncccc2c1` (centres unmarked) [Example 249, (2,7-Dimethyl-3-(1-methyl-1H-indol-4-yl)-2,4,5,7-tetrahydro-6H-pyrazolo[3,4-c]pyridin-6-yl)(quinolin-6-yl)methanone]: half-maximal inhibition (IC50) was put at 1530 nM.
On the same count and under the same terms, under `C[C@H]1c2nn(C)c(-c3cncc(C(F)(F)F)c3)c2CCN1C(=O)c1ccc2nccnc2c1` [Example 248, (S)-(2,7-Dimethyl-3-(5-(trifluoromethyl)pyridin-3-yl)-2,4,5,7-tetrahydro-6H-pyrazolo[3,4-c]pyridin-6-yl)(quinoxalin-6-yl)methanone] stands 2230 nM; under `COc1nccc(C(=O)N2CCc3c(nn(C)c3-c3cc(F)c(F)c(F)c3)[C@@H]2C)c1C` [Example 314, [(7S)-2,7-Dimethyl-3-(3,4,5-trifluorophenyl)-5,7-dihydro-4H-pyrazolo[3,4-c]pyridin-6-yl]-(2-methoxy-3-methyl-4-pyridyl)methanone], 20.6 nM; under `C[C@H]1c2nn(C)c(-c3cc(F)c(F)c(F)c3)c2CCN1C(=O)c1cc(F)ccc1-n1cccn1` [Example 193, (S)-(2,7-Dimethyl-3-(3,4,5-trifluorophenyl)-2,4,5,7-tetrahydro-6H-pyrazolo[3,4-c]pyridin-6-yl)(5-fluoro-2-(1H-pyrazol-1-yl)phenyl)methanone], 75.5 nM.
In turn, `C[C@H]1c2nn(C)c(-c3cc(F)c(F)c(F)c3)c2CCN1C(=O)c1cnc2c(ccn2C)c1` [Example 226, (S)-(2,7-Dimethyl-3-(3,4,5-trifluorophenyl)-2,4,5,7-tetrahydro-6H-pyrazolo[3,4-c]pyridin-6-yl)(1-methyl-1H-pyrrolo[2,3-b]pyridin-5-yl)methanone] showed an IC50 of 16.2 nM.
In turn, `C[C@H]1c2nn(C)c(-c3cc(F)cc(Cl)c3)c2CCN1C(=O)c1ccc2nccnc2c1` [Example 181, (S)-(3-(3-Chloro-5-fluorophenyl)-2,7-dimethyl-2,4,5,7-tetrahydro-6H-pyrazolo[3,4-c]pyridin-6-yl)(quinoxalin-6-yl)methanone] came in with an IC50 of 6.37 nM.
`Cn1nc2c(c1-c1ccccc1)CCN(C(=O)c1noc3cc(Cl)ccc13)C2` [Example 54, (6-Chlorobenzo[d]isoxazol-3-yl)(2-methyl-3-phenyl-2,4,5,7-tetrahydro-6H-pyrazolo[3,4-c]pyridin-6-yl)methanone] had an IC50 of 1120 nM.
For the compound `COc1ccnc(C(=O)N2CCc3c(nn(C)c3-c3cc(F)c(F)c(F)c3)[C@@H]2C)c1C` [Example 307, [(7S)-2,7-Dimethyl-3-(3,4,5-trifluorophenyl)-5,7-dihydro-4H-pyrazolo[3,4-c]pyridin-6-yl]-(4-methoxy-3-methyl-2-pyridyl)methanone], the IC50 worked out at 181 nM.
As for `Cn1nc2c(c1-c1ccccc1)CCN(C(=O)c1cccc3[nH]ncc13)C2` [Example 65, (1H-Indazol-4-yl)(2-methyl-3-phenyl-2,4,5,7-tetrahydro-6H-pyrazolo[3,4-c]pyridin-6-yl)methanone], the 50% inhibitory concentration (IC50) amounted to 101 nM.

As a reminder, the IC50 is the concentration at which inhibition is half-maximal. High values mean a need for much substance, low ones inhibition by little substance.
